We go through 27 compounds from patent US20240025912A1 (Merck Sharp & Dohme LLC, priority 2022, published 2024).

As usually defined, the EC50 is the concentration that produces a half-maximal response.

GST-RIPK1 (recombinant GST-RIPK1 kinase domain (residues 1-327)), sequence (Q13546 1-327): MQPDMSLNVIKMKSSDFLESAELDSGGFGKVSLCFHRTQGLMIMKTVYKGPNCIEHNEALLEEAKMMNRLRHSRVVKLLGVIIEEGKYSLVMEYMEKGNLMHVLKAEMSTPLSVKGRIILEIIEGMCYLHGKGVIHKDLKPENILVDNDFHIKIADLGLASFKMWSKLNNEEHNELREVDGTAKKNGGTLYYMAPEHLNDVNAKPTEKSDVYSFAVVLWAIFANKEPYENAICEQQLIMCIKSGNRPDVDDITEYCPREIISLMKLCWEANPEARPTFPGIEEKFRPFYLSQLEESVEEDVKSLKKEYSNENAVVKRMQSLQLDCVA

The target in the assay is GST-RIPK1 (recombinant GST-RIPK1 kinase domain (residues 1-327)) (Homo sapiens (Human), UniProt Q13546). Kind of assay: RIPK1-ADP-Glo Enzymatic Assay. The assay is classed as biochemical. As to conditions: 25 nM GST-RIPK1, 300 μM ATP, 3 μM dephosphorylated-MBP, 30 min pre-incubation, 150 min reaction. On the procedure:
The enzymatic activity of RIPK1 is measured using an assay derived from ADP-Glo kit (TMPromega), which provides a luminescent-based ADP detection system. Specifically, the ADP generated by RIPK1 kinase is proportionally detected as luminescent signals in a homogenous fashion. In this context, the assessment of the inhibitory effect of small molecules (EC50) is measured by the effectiveness of the compounds to inhibit the ATP to ADP conversion by RIPK1.
In this assay, the potency (EC50) of each compound was determined from a ten-point (1:3 serial dilution; top compound concentration of 100000 nM) titration curve using the following outlined procedure. To each well of a white ProxiPlus 384 well-plate, 30 nL of compound (1% DMSO in final assay volume of 3 μL) was dispensed, followed by the addition of 2 μL of 1× assay buffer (25 mM Hepes 7.3, 20 mM MgCl2, 50 mM NaCl, 1 mM DTT, 0.005% Tween20, and 0.02% BSA) containing 37.5 nM of GST-RIPK1 (recombinant GST-RIPK1 kinase domain (residues 1-327) enzyme produced from baculovirus-transfected Sf21 cells: MW 62 kDa). Plates were placed in an ambient temperature humidified chamber for a 30 min pre-incubation with compound. Subsequently, each reaction was initiated by the addition of 1 μL 1× assay buffer containing 900 μM ATP and 3 μM dephosphorylated-MBP substrate. The final reaction in each well of 3 μL consists of 25 nM of GST-RIPK1, 300 μM ATP, and 3 μM dephosphorylated-MBP. Kinase reactions were allowed to proceed for 150 min prior to adding ADP-Glo reagents per Promega's outlined kit protocol. Dose-response curves were generated by plotting percent effect (% product conversion; Y-axis) vs. Log 10 compound concentrations (X-axis). EC50 values were calculated using a non-linear regression, four-parameters sigmoidal dose-response model.
For orientation: ADP-Glo turns the ADP formed in a reaction into a luminescent signal.
For the compound `O=c1n(C23CC(F)(C2)C3)nc2n1[C@H](c1cnccn1)CC2` [Compound 4-12, (S)-2-(3-fluorobicyclo[1.1.1]pentan-1-yl)-5-(pyrazin-2-yl)-2,5,6,7-tetrahydro-3H-pyrrolo[2,1-c][1,2,4]triazol-3-one], the EC50 was found to be 0.084 µM.

With `O=c1n(C23CC(F)(C2)C3)nc2n1[C@H](c1cc(F)cc(F)c1)C[C@H]2O` [Compound 5-1, (5S,7R)-5-(3,5-difluorophenyl)-2-(3-fluorobicyclo[1.1.1]pentan-1-yl)-7-hydroxy-2,5,6,7-tetrahydro-3H-pyrrolo[2,1-c][1,2,4]triazol-3-one], the EC50 was 0.0783 µM.

As to `Cc1cncc([C@@H]2CCc3nn(C45CC(Cl)(C4)C5)c(=O)n32)n1` [Compound 1-68], the EC50 came to 0.0595 µM.

Turning to `O=c1n(C23CC(F)(C2)C3)nc2n1[C@H](c1cnc(C(F)(F)F)cn1)CC2` [Compound 4-16, (S)-2-(3-fluorobicyclo[1.1.1]pentan-1-yl)-5-(5-(trifluoromethyl)pyrazin-2-yl)-2,5,6,7-tetrahydro-3H-pyrrolo[2,1-c][1,2,4]triazol-3-one], the EC50 was 0.496 µM.

As for `N#CC12CC(n3nc4n(c3=O)[C@H](c3cc(F)cc(F)c3)COC4)(C1)C2` [Compound 1-79, (R)-3-(5-(3,5-difluorophenyl)-3-oxo-5,6-dihydro-3H-[1,2,4]triazolo[3,4-c][1,4]oxazin-2(8H)-yl)bicyclo[1.1.1]pentane-1-carbonitrile], the EC50 came to 0.108 µM.

Turning to `N#CC12CC(n3nc4n(c3=O)[C@H](c3c(F)cccc3F)CC4)(C1)C2` [Compound 1-43, (S)-3-(5-(2,6-difluorophenyl)-3-oxo-6,7-dihydro-3H-pyrrolo[2,1-c][1,2,4]triazol-2(5H)-yl)bicyclo[1.1.1]pentane-1-carbonitrile], the EC50 turned out to be 0.0577 µM.

For the compound `O=c1n(C23CC(F)(C2)C3)nc2n1[C@H](c1ccccc1)COC2` [Compound 1-78, (R)-2-(3-fluorobicyclo[1.1.1]pentan-1-yl)-5-phenyl-2,5,6,8-tetrahydro-3H-[1,2,4]triazolo[3,4-c][1,4]oxazin-3-one], the EC50 was 0.0939 µM.

As for `C#Cc1cccc(C2CCc3nn(C45CC(F)(C4)C5)c(=O)n32)c1` (racemic) [Compound 4-4, (±)-5-(3-ethynylphenyl)-2-(3-fluorobicyclo[1.1.1]pentan-1-yl)-2,5,6,7-tetrahydro-3H-pyrrolo[2,1-c][1,2,4]triazol-3-one], the EC50 was determined as 0.495 µM.

`O=c1n(C23CCC(C2)C3)nc2n1[C@H](c1cnccn1)CC2` [Compound 1-61, (S)-2-(bicyclo[2.1.1]hexan-1-yl)-5-(pyrazin-2-yl)-2,5,6,7-tetrahydro-3H-pyrrolo[2,1-c][1,2,4]triazol-3-one]: the EC50 is 0.696 µM.

For `O=c1n(C23CC(F)(C2)C3)nc2n1[C@H](c1cccc(F)c1)CC2` [Compound 1-16, (S)-2-(3-fluorobicyclo[1.1.1]pentan-1-yl)-5-(3-fluorophenyl)-2,5,6,7-tetrahydro-3H-pyrrolo[2,1-c][1,2,4]triazol-3-one], the EC50 is 0.0231 µM.

As to `O=c1n(C23CC(F)(C2)C3)nc2n1[C@H](c1ccccc1)CC2F` (single isomer, unassigned) [Compound 6-3, (5S)-7-(S or R)-fluoro-2-(3-fluorobicyclo[1.1.1]pentan-1-yl)-5-phenyl-2,5,6,7-tetrahydro-3H-pyrrolo[2,1-c][1,2,4]triazol-3-one], the 50% effective concentration (EC50) is 0.157 µM.

For `N#CC12CC(n3nc4n(c3=O)[C@H](c3cncc(Cl)c3)CC4)(C1)C2` [Compound 1-22, (S)-3-(5-(5-chloropyridin-3-yl)-3-oxo-6,7-dihydro-3H-pyrrolo[2,1-c][1,2,4]triazol-2(5H)-yl)bicyclo[1.1.1]pentane-1-carbonitrile], the EC50 came out at 0.485 µM.

Regarding `N#CC12CCC(n3nc4n(c3=O)[C@H](c3cnccn3)CC4)(C1)C2` [Compound 1-60, (S)-4-(3-oxo-5-(pyrazin-2-yl)-6,7-dihydro-3H-pyrrolo[2,1-c][1,2,4]triazol-2(5H)-yl)bicyclo[2.1.1]hexane-1-carbonitrile], the EC50 came to 0.512 µM.

Consider `N#CC12CC(n3nc4n(c3=O)C(C3CCCC3)CC4)(C1)C2` (single isomer, unassigned) [Compound 1-54, 3-(5-(S or R)-cyclopentyl-3-oxo-6,7-dihydro-3H-pyrrolo[2,1-c][1,2,4]triazol-2(5H)-yl)bicyclo[1.1.1]pentane-1-carbonitrile], for which the EC50 was determined as 0.34 µM.

For the compound `O=c1n(C23CC(C2)C3)nc2n1[C@H](c1cc(F)cc(F)c1)CC2` [Compound 1-7, (5S)-2-(bicyclo[1.1.1]pentan-1-yl)-5-(3,5-difluorophenyl)-2,5,6,7-tetrahydro-3H-pyrrolo[2,1-c][1,2,4]triazol-3-one], the EC50 came to 0.0984 µM.

For `O=c1n(C23CC(F)(C2)C3)nc2n1[C@H](c1ccccc1)CC2` [Compound 1-6, (5S)-2-(3-fluorobicyclo[1.1.1]pentan-1-yl)-5-phenyl-2,5,6,7-tetrahydro-3H-pyrrolo[2,1-c][1,2,4]triazol-3-one], the EC50 was found to be 0.0512 µM.

As for `N#CC12CC(n3nc4n(c3=O)[C@H](c3ccccc3F)CC4F)(C1)C2` (single isomer, unassigned) [Compound 6-9, 3-[(5S)-7-(S or R)-fluoro-5-(2-fluorophenyl)-3-oxo-6,7-dihydro-3H-pyrrolo[2,1-c][1,2,4]triazol-2(5H)-yl]bicyclo[1.1.1]pentane-1-carbonitrile], the EC50 came out at 0.0689 µM.

On to `O=c1n(C23CC(Cl)(C2)C3)nc2n1[C@H](c1cncc(F)c1)CC2` [Compound 1-15, (5S)-2-(3-chlorobicyclo[1.1.1]pentan-1-yl)-5-(5-fluoropyridin-3-yl)-2,5,6,7-tetrahydro-3H-pyrrolo[2,1-c][1,2,4]triazol-3-one], for which the EC50 is 0.111 µM.

Turning to `COC(=O)C12CC(n3nc4n(c3=O)[C@H](c3ccccc3)CC4)(C1)C2(F)F` [Compound 3-2, methyl (S)-2,2-difluoro-3-(3-oxo-5-phenyl-6,7-dihydro-3H-pyrrolo[2,1-c][1,2,4]triazol-2(5H)-yl)bicyclo[1.1.1]pentane-1-carboxylate], the EC50 amounted to 0.143 µM.

On to `Cc1cnc([C@@H]2CCc3nn(C45CC(F)(C4)C5)c(=O)n32)cn1` [Compound 4-14, (S)-2-(3-fluorobicyclo[1.1.1]pentan-1-yl)-5-(5-methylpyrazin-2-yl)-2,5,6,7-tetrahydro-3H-pyrrolo[2,1-c][1,2,4]triazol-3-one], for which the EC50 was found to be 0.198 µM.

Turning to `N#CC12CC(n3nc4n(c3=O)[C@H](c3cccc(Cl)c3)CC4)(C1)C2` [Compound 1-62, (S)-3-(5-(3-chlorophenyl)-3-oxo-6,7-dihydro-3H-pyrrolo[2,1-c][1,2,4]triazol-2(5H)-yl)bicyclo[1.1.1]pentane-1-carbonitrile], the EC50 was 0.0986 µM.

As for `O=c1n(C23CCC(CC2)CC3)nc2n1[C@H](c1cc(F)cc(F)c1)CC2` [Compound 1-25, (5S)-2-(bicyclo[2.2.2]octan-1-yl)-5-(3,5-difluorophenyl)-2,5,6,7-tetrahydro-3H-pyrrolo[2,1-c][1,2,4]triazol-3-one], the EC50 came to 0.685 µM.

As for `N#CC12CC(n3nc4n(c3=O)[C@H](c3cccc(C(F)(F)F)c3)CC4)(C1)C2` [Compound 1-49, (S)-3-(3-oxo-5-(3-(trifluoromethyl)phenyl)-6,7-dihydro-3H-pyrrolo[2,1-c][1,2,4]triazol-2(5H)-yl)bicyclo[1.1.1]pentane-1-carbonitrile], the EC50 came to 0.874 µM.

Take `COC(=O)C12CC(n3nc4n(c3=O)[C@H](c3cc(F)cc(F)c3)CC4)(C1)C2` [Compound 1-18, methyl 3-[(5S)-5-(3,5-difluorophenyl)-3-oxo-6,7-dihydro-3H-pyrrolo[2,1-c][1,2,4]triazol-2(5H)-yl]bicyclo[1.1.1]pentane-1-carboxylate]: the EC50 was 0.114 µM.

For `N#CC12CC(n3nc4n(c3=O)[C@H](c3cc(F)cc(F)c3)CC4F)(C1)C2` (single isomer, unassigned) [Compound 6-6, 3-[(5S)-5-(3,5-difluorophenyl)-7-(S or R)-fluoro-3-oxo-6,7-dihydro-3H-pyrrolo[2,1-c][1,2,4]triazol-2(5H)-yl]bicyclo[1.1.1]pentane-1-carbonitrile], the EC50 was found to be 0.0205 µM.

With `O=c1n(C23CC(F)(C2)C3)nc2n1[C@H](c1ccc(Cl)cc1)CC2` [Compound 1-45, (S)-5-(4-chlorophenyl)-2-(3-fluorobicyclo[1.1.1]pentan-1-yl)-2,5,6,7-tetrahydro-3H-pyrrolo[2,1-c][1,2,4]triazol-3-one], the EC50 stood at 0.0377 µM.

Take `O=c1n(C23CC(Cl)(C2)C3)nc2n1[C@H](c1cccc(F)c1)CC2` [Compound 1-42, (S)-2-(3-chlorobicyclo[1.1.1]pentan-1-yl)-5-(3-fluorophenyl)-2,5,6,7-tetrahydro-3H-pyrrolo[2,1-c][1,2,4]triazol-3-one]: the EC50 came to 0.0185 µM.
